Measured values: publication PMC4072668, “Mass Spectrometric Detection and Characterization of Atypical Membrane-Bound Zinc-Sensitive Phosphatases Modulating GABAA Receptors” (PLoS ONE, 2014)
Like-named read-outs stand apart in the source and are kept apart here. One block for each compound: values may come before it. Non-standard residues stand in square brackets, D forms with d. No end group written: not given here. pT = C[C@@H](OP(=O)(O)O)[C@H](N)C(=O)O; pS = N[C@@H](COP(=O)(O)O)C(=O)O

Legend:
[1] = system: membrane-bound phosphatase activities of washed cortical membrane; experiment: LC-MS/MS phosphatase assay with effectors, N-terminal phosphopeptide pI2α1N-P as substrate; type: biochemical; conditions: substrate pI2α1N-P; for IC50: 1 mM Mg2+, 30°C, 10 min, read-out: IC50
Procedure: (§1) Phosphatasic activity of bovine, rat and human washed cortical membranes was measured by using synthetic phosphopeptides as substrates. Reactions were performed in presence of 50 µg/ml (total proteins) of washed cortical membrane, 10 mM Hepes-Tris pH 7.4 and 1 mM MgCl2. Enzymatic reactions were initiated by adding 10 µM of phosphopeptide incubated for 10 min at 30°C and stopped by adding ice-cold acetic acid at a final concentration of 10% (w/v). Following a 800 g centrifugation during 10 min at 4°C, the supernatants were analyzed by LC-MS/MS. […] For these reasons, and to avoid micro-capillary column obstruction we have preferentially used the micro-LC column to characterize the pharmacological profile of phosphatasic activities.
(§2) Quantification of appearance of the native peptide and disappearance of the phosphopeptide in different conditions was performed using the calibration curve plotted using the Xcalibur software (P/N 64018-XCALI version 1.3). The calibration curve and linear regression were constructed using a series of standards, native and phosphorylated equimolar mixture, N- or C-terminal peptides at different concentrations 0.5, 1, 2, 5 and 10 µM (n = 2) in 10 mM Hepes pH 7.4, 1 mM Mg^2+ and 10% acetic acid, which was the same milieu condition as in the phosphatase assay after stopping reactions. The linear regression represents peak area of MS/MS chromatogram spectra depending on the peptide concentration (Figure S1).
(§3) Different effectors were tested by addition to the incubation medium at variable concentration: the dicationic ions Mg^2+, Ca^2+, Zn^2+ were used as chloride, the polycation spermine as hydrochloride, the anion F^− as sodium fluoride (NaF), and the inhibitors of some known phosphatases okadaic acid and the two (+/−) enantiomers of p–bromotetramisole oxalate (p-Br-t). For the inhibitory effects, relative 50% inhibition concentration (IC50) values were either determined graphically with a log-scale for the concentration axis or by the ‘log (inhibitor) vs. response’ nonlinear fit of Prism 5 software (GraphPad), considering activity in the absence of inhibitor as 100%.
Figure 4 Effects of various inhibitors on the membrane-bound phosphatase activities. […] Incubations were performed at 30°C during 10 min. The activities are expressed as a percentage of that of control samples without inhibitors. Inhibition profiles of PPase activities by okadaic acid were performed using N-terminal phosphopeptide (A) or C-terminal phosphopeptide (B) as substrate. The data points are means ± SEM of 3 experiments. The red arrows indicate the different IC50. […] Data points are the average ± SEM of duplicate assays. (D) Effect of Ca^2+ ions, fluoride (F^−) and spermine (SPM^4+) on PPase activity using N-terminal phosphopeptide as substrate.

[2] = system: membrane-bound phosphatase activities of washed cortical membranes; experiment: Enzyme kinetics of membrane-bound phosphatase activities with phosphopeptide substrates; type: biochemical; conditions: for Km / Vmax: phosphopeptide as substrate, 50 µg/ml membrane proteins, 30°C, 10 min, Michaelis-Menten fit
Procedure: Phosphatasic activity of bovine, rat and human washed cortical membranes was measured by using synthetic phosphopeptides as substrates. Reactions were performed in presence of 50 µg/ml (total proteins) of washed cortical membrane, 10 mM Hepes-Tris pH 7.4 and 1 mM MgCl2. Enzymatic reactions were initiated by adding 10 µM of phosphopeptide incubated for 10 min at 30°C and stopped by adding ice-cold acetic acid at a final concentration of 10% (w/v). Following a 800 g centrifugation during 10 min at 4°C, the supernatants were analyzed by LC-MS/MS. This centrifugation step was critical to remove membrane suspension that interferes with nano-LC and MS analysis. For these reasons, and to avoid micro-capillary column obstruction we have preferentially used the micro-LC column to characterize the pharmacological profile of phosphatasic activities.
The best conditions of incubation time and total protein concentration of washed cortical membranes were determined for assaying phosphatase activity with 10 µM of pI2α1 phosphopeptide. Protein concentration varied from 1 to 300 µg/ml and incubation time from 0.25 to 30 min, at fixed temperature of 30°C as in previous studies. Initial velocity of the enzymatic reaction was determined by linear regression (slope value). The optimal conditions were obtained with 50 µg/ml total membrane protein concentration and 10 min incubation time. The effects of the substrate effects were measured by varying the pI2α1N-P and pI2α1C-P concentrations between 3 and 75 µM. Saturation plots were generated via non-linear fit to the Michaelis-Menten equation. The affinity constant (Km) and maximum velocity (Vmax) were evaluated from this curve fitting using the Prism 5 computer program (GraphPad). Double-reciprocal plots with the Lineweaver-Burk equation were also drawn by linear fits using the same software.
Figure 2 LC-MS/MS detection and kinetics analysis of GABAAR α1-subunit phosphatase activities. (A) Dose-dependency at various protein concentrations; (B) time course of phosphatase activities using 50 µg/ml of total proteins of washed cortical membranes from bovine brain and (C) from human epileptic tissue. The N-terminal phosphopeptide (pI2α1N-P) used as substrate at 10 µM was incubated during 10 min at 30°C in 10 mM Hepes (pH 7.4) in the presence of 1 mM Mg^2+. The enzymatic reactions were stopped with 10% acetic acid and the samples were analyzed by LC-MS/MS as in figure 1E, F. The dephosphorylation rate was quantified by measuring simultaneously the quantity of the produced native peptide (pI2α1N) and of the remaining phosphorylated substrate (pI2α1N-P). Error bars represent SEM of two experiments. Kinetic analysis of GABAAR α1-subunit phosphatase activities was investigated using N-terminal (pI2α1N-P) and C-terminal (pI2α1C-P) phosphopeptides. All experiments were carried out with 50 µg/ml membrane proteins concentration, incubated at 30°C during 10 min, in presence of different concentrations of substrates. (D) Saturation plot of the initial velocity Vi versus [pI2α1N-P] and Lineweaver-Burk plots of 1/V versus 1/[pI2α1N-P] […] (E) Saturation plot of Vi versus [pI2α1C-P] and Lineweaver-Burk plot of 1/V versus 1/[pI2α1C-P] (inset). The data points are means ± SEM of 3 experiments.

[3] = system: GABAA receptor currents in pyramidal neurons; set-up: method as in PMID 15342727; conditions: cited from earlier work
[4] = system: membrane-bound phosphatase dephosphorylating GABAAR; set-up: method as in PMID 10762086; conditions: cited from earlier work
alkaline phosphatase = system: alkaline phosphatase; set-up: method as in PMID 10898722; conditions: cited from earlier work
[5] = system: membrane-bound phosphatase activities of rat washed cortical membrane; experiment: LC-MS/MS phosphatase assay, Zn2+ profile, N-terminal phosphopeptide pI2α1N-P as substrate; type: biochemical; conditions: for IC50: substrate pI2α1N-P 10 µM, 1 mM Mg2+, 30°C, 10 min, two-step fit
Procedure: as §1, §2, §3
Assays were performed in presence of rat washed cortical membrane at 50 µg/ml of total protein concentration, with increasing amounts of Zn^2+ ions in 10 mM Hepes buffer pH 7.4 with 1 mM Mg^2+ in presence of. Incubations were performed at 30°C during 10 min. The activities are expressed as a percentage of that of control samples. […] (H) PPase activity at very low Zn^2+ concentrations (1 pM–200 nM). The IC50 values are mentioned with their 95% confidence intervals and calculated from nonlinear regression curve fits using GraphPad Prism 5.

[6] = system: membrane-bound phosphatase activities of rat washed cortical membrane; experiment: LC-MS/MS phosphatase assay, Zn2+ profile, C-terminal phosphopeptide pI2α1C-P as substrate; type: biochemical; conditions: for IC50: substrate pI2α1C-P 10 µM, 1 mM Mg2+, 30°C, 10 min, two-step fit
Procedure: as §1, §2
Different effectors were tested by addition to the incubation medium at variable concentration: the dicationic ions Mg^2+, Ca^2+, Zn^2+ were used as chloride, the polycation spermine as hydrochloride, the anion F^− as sodium fluoride (NaF), and the inhibitors of some known phosphatases okadaic acid and the two (+/−) enantiomers of p–bromotetramisole oxalate (p-Br-t). […]
Assays were performed in presence of rat washed cortical membrane at 50 µg/ml of total protein concentration, with increasing amounts of Zn^2+ ions in 10 mM Hepes buffer pH 7.4 with 1 mM Mg^2+ in presence of. […] The activities are expressed as a percentage of that of control samples. […]

[7] = read-out: IC50 (H), high affinity
[8] = read-out: IC50 (L), low affinity

Compound: [F-].[Na+] [fluoride (F^−), sodium fluoride]
- inhibition of phosphatase activities ([1]; 1 mM): 45%
- inhibition of phosphatase activities ([1]; 10 mM): ~90%
- IC50 ([1]; listed as Sodium fluoride): < 2000 µM
- IC50 [1]: ~2000 µM

Compound: [Ca+2].[Cl-].[Cl-] [Ca^2+, CaCl2]
- inhibition of phosphatase activities ([1]; 1 mM): 30%
- inhibition of phosphatase activities ([1]; 10 mM): less than 60%
- IC50 [1]: ~5000 µM

Compound: [Na+].[Na+].[Na+].[O]=[V]([O-])([O-])[O-] [sodium orthovanadate]
- effect on rundown of GABAA currents [3]: reduced rundown
- inhibition of membrane phosphatases [4]: inhibits

Compound: Brc1ccc(C2CN3CCSC3=N2)cc1.O=C(O)C(=O)O (single isomer, unassigned; (-)) [(−)-p--Br--t, (−)-p-bromotetramisole oxalate]
- inhibition of membrane phosphatase activities ([1]; 1 mM): completely inhibited
- IC50 [1]: 300 µM
- inhibition of alkaline phosphatase (alkaline phosphatase): potent alkaline phosphatase inhibitor

Compound: [Cl-].[Cl-].[Mg+2] [Mg^2+, MgCl2]
- effect of increasing concentration on phosphatase activities ([1]; 1 µM to 1 mM, data not shown): moderate but not linear increase

Compound: Brc1ccc(C2CN3CCSC3=N2)cc1.O=C(O)C(=O)O (single isomer, unassigned; (+)) [(+)-p--Br--t, (+)-p-bromotetramisole oxalate]
- inhibition of membrane phosphatase activities ([1]; 1 mM): completely inhibited
- IC50 [1]: 100 µM
- inhibition of alkaline phosphatase (alkaline phosphatase): completely insensitive

Now from value to compound, other results behind:

- reduction in catalytic efficiency (Vmax/Km) compared to the phosphothreonine peptide PI2α1N-P [2]: eightfold reduction
- Km [2]: 116 ± 20 µM
- Vmax [2]: 1290±150 pM.min^−1.ml^−1
Compound: EPKKTFNSV[pS]KIDR [pI2α1C-P]

- effect on phosphatasic activities at low concentrations ([5]; 1 pM–200 nM Zn2+, substrate pI2α1N-P): several activations
- inhibition of phosphatase activities ([5]; 1 mM Zn2+, substrate pI2α1N-P): completely inhibited
- IC50 [5, 7]: 1.7 µM
- IC50 [5, 8]: 48 µM
- inhibition of phosphatase activities ([6]; 1 mM Zn2+, substrate pI2α1C-P): completely inhibited
- IC50 [6, 7]: 0.6 µM
- IC50 [6, 8]: 15 µM
Compound: [Cl-].[Cl-].[Zn+2] [Zn^2+, Zinc chloride]
- inhibition of membrane-bound phosphatase activity ([4]; concentrations between 0.1 µM-1 mM): inhibited
- inhibition of GABAAR dephosphorylation ([4]; washed brain membranes, autoradiographic method): complete inhibition

- inhibition of phosphatase activities ([1]; 1 mM): 10%
- inhibition of phosphatase activities ([1]; 10 mM): 20%
- IC50 [1]: > 10000 µM
Compound: NCCCNCCCCNCCCN [Spermine, spermine]

- Km [2]: 25.4 ± 3.3 µM
- Vmax [2]: 2320±130 pM.min^−1.ml^−1
Compound: NYF[pT]KRGYAWDGK [pI2α1N-P]
